Experimental data reported in PubChem BioAssay AID2060496 (Molecular Pharmacology Branch, DTP, NCI, 2025).

Tested on: 276233-004-R-J1-PDC complex spheroid viability
Experiment: Anticancer human tumor 276233-004-R-J1-PDC patient-derived colon adenocarcinoma cell line growth inhibition [GQUAD]
Conditions: for IC50: curve of first compound; for viability, T/C: stronger effect = lower value
Description: DNA G-quadruplex Stabilizer Agents in Combinations in Complex Spheroids
A high-throughput screen of multi-cell type tumor spheroids was designed to identify active combinations of DNA G-quadruplex stabilizer agents and targeted small molecules. Complex spheroids include a stromal component modeled by human endothelial cells (HUVEC) and fibroblasts modeled by human mesenchymal stem cells (MSCs). The concentration ranges selected for each drug and investigational agent were based upon clinically achievable concentrations if the clinical Cmax of the agent was known.
Compounds. The drugs and investigational agents: pidnarulex (CX-5461; NSC782164), APTO-253 (NSC789042), BRACO-19 (NSC847499), peposertib (NSC802822), ceralasertib (NSC780249), elimusertib (NSC800525), camonsertib (NSC841442), AZD-1390 (NSC803789), olaparib (NSC753686), talazoparib (NSC767125), ART-558 (NSC835418), sotorasib (NSC818433), MRTX-1133 (NSC836407), SN-38 (NSC673596), topotecan (NSC609699), etoposide (NSC141540), doxorubicin (NSC123127), gemcitabine (NSC613327), 5-fluorouracil (NSC19893), paclitaxel (NSC125973), vemurafenib (NSC761431), panobinostat (NSC761190), R-306465 (JNJ-16241199; NSC773264), adavosertib (NSC754352), TP-3654 (NSC805149), carboplatin (NSC241240), KSQ-4279 (NSC840948), and staurosporine (NSC755774) were obtained from the National Cancer Institute (NCI) Developmental Therapeutics Program Chemical Repository (34). The FDA-approved anticancer drug set is available from the NCI Developmental Therapeutics Program. […] The stock solutions were prepared in dimethyl sulfoxide (DMSO, Sigma-Aldrich, St. Louis, MO, cat. D2650) at 800-fold the tested concentration and stored at -70 degrees C prior to their use. All drugs and investigational agents were tested over a range starting from a high concentration at or near the clinical Cmax and decreasing in half-log increments. If the clinical Cmax for an agent had not been determined, the highest concentration tested was 10 microM.
2.3 Cell Culture. All cells were maintained in an incubator at 37 degrees C and 5% CO2 with 95% humidity. The PDC lines were cultured according to standard operating procedures established by the NCI PDMR. All PDCs were thawed and cultured in Matrigel-coated flasks prepared with a working solution of 1X Ham's F-12 nutrient mix, without supplementation (Invitrogen, cat. 11765054), 100 U/mL penicillin-streptomycin (Invitrogen, cat. 15140122), and 2.5% Matrigel (Corning Inc., cat. 354248) for the first three passages. The 857933-349-R-J2-PDC line was cultured in 6C/Colon 1B media, which includes advanced DMEM/F-12 (Thermo Fisher Scientific, cat. 12634028), 10 mM HEPES (Thermo Fisher Scientific, cat. 15630080), 1X GlutaMAX supplement (Thermo Fisher Scientific, cat. 35050061), 0.1 mg/mL primocin (InvivoGen, cat. ant-pm-2), 10% defined fetal bovine serum, heat inactivated (HyClone Laboratories Inc., cat. SH30070.03HI), 50% L-WRN conditioned media (ATCC, cat. CRL-3276), 1.25 mM N-Acetyl-L-cysteine (Sigma-Aldrich, cat. A9165), 10 mM nicotinamide (Sigma-Aldrich, cat. N0636), 1X B-27 supplement (Thermo Fisher Scientific, cat. 17504044), 1X N-2 supplement (Thermo Fisher Scientific, cat. 17502048), 10 microM Y-27632 dihydrochloride (Tocris Bioscience, cat. 1254), and 50 ng/mL human EGF recombinant protein (Thermo Fisher Scientific, cat. PHG0311). The 485176-168-R4-J1-PDC line was cultured in Panc media, which includes all 6C/Colon 1B media components plus 100 ng/mL human FGF-10 (Thermo Fisher Scientific, cat. 100-26), 500 nM SB-431542 (Selleckchem, cat. S1067), and gastrin (Tocris, cat. 3006).
[…]
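Note: spheroids exposed to drugs for seven days.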
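Throughout, for viability, T/C: 100% = DMSO vehicle control viability.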

- IC50 (second compound 0.0316 µM): 211 nM
- IC50 (second compound 0.1 µM): 144 nM
- IC50 (second compound 0.316 µM): 127 nM
- IC50 (second compound 1 µM): 62.4 nM
- IC50 (second compound 3.16 µM): 46.9 nM
- IC50 (second compound 10 µM): 40.5 nM
SMILES: Cc1[nH]c2ccccc2c1CCNCc1ccc(/C=C/C(=O)NO)cc1 + Cc1cnc(CNC(=O)c2c(=O)c3ccc(N4CCCN(C)CC4)nc3n3c2sc2ccccc23)cn1
- viability, T/C (second compound 0.0316 µM, first compound 0.000999 µM): 90.4%
- viability, T/C (second compound 0.0316 µM, first compound 0.00316 µM): 93%
- viability, T/C (second compound 0.0316 µM, first compound 0.00999 µM): 87.7%
- viability, T/C (second compound 0.0316 µM, first compound 0.0316 µM): 82.3%
- viability, T/C (second compound 0.0316 µM, first compound 0.0999 µM): 75.7%
- viability, T/C (second compound 0.0316 µM, first compound 0.316 µM): 36.6%
- viability, T/C (second compound 0.1 µM, first compound 0.000999 µM): 80.1%
- viability, T/C (second compound 0.1 µM, first compound 0.00316 µM): 74.1%
- viability, T/C (second compound 0.1 µM, first compound 0.00999 µM): 92.7%
- viability, T/C (second compound 0.1 µM, first compound 0.0316 µM): 101%
- viability, T/C (second compound 0.1 µM, first compound 0.0999 µM): 57.8%
- viability, T/C (second compound 0.1 µM, first compound 0.316 µM): 33.2%
- viability, T/C (second compound 0.316 µM, first compound 0.000999 µM): 88%
- viability, T/C (second compound 0.316 µM, first compound 0.00316 µM): 99.1%
- viability, T/C (second compound 0.316 µM, first compound 0.00999 µM): 102%
- viability, T/C (second compound 0.316 µM, first compound 0.0316 µM): 74.3%
- viability, T/C (second compound 0.316 µM, first compound 0.0999 µM): 57.9%
- viability, T/C (second compound 0.316 µM, first compound 0.316 µM): 29.6%
- viability, T/C (second compound 1 µM, first compound 0.000999 µM): 71.5%
- viability, T/C (second compound 1 µM, first compound 0.00316 µM): 92%
- viability, T/C (second compound 1 µM, first compound 0.00999 µM): 88.1%
- viability, T/C (second compound 1 µM, first compound 0.0316 µM): 70.9%
- viability, T/C (second compound 1 µM, first compound 0.0999 µM): 35.2%
- viability, T/C (second compound 1 µM, first compound 0.316 µM): 19.1%
- viability, T/C (second compound 3.16 µM, first compound 0.000999 µM): 71.6%
- viability, T/C (second compound 3.16 µM, first compound 0.00316 µM): 85.8%
- viability, T/C (second compound 3.16 µM, first compound 0.00999 µM): 68%
- viability, T/C (second compound 3.16 µM, first compound 0.0316 µM): 62.3%
- viability, T/C (second compound 3.16 µM, first compound 0.0999 µM): 29.2%
- viability, T/C (second compound 3.16 µM, first compound 0.316 µM): 9.8%
- viability, T/C (second compound 10 µM, first compound 0.000999 µM): 70.9%
- viability, T/C (second compound 10 µM, first compound 0.00316 µM): 60.8%
- viability, T/C (second compound 10 µM, first compound 0.00999 µM): 73.2%
- viability, T/C (second compound 10 µM, first compound 0.0316 µM): 54.7%
- viability, T/C (second compound 10 µM, first compound 0.0999 µM): 26.4%
- viability, T/C (second compound 10 µM, first compound 0.316 µM): 4.45%
